Reference: patent publication US10071103B2, “Treatments for resistant acne” (VYOME BIOSCIENCES PVT. LTD., priority 2014, dated 2018)
Values after ≈ are worked out from the molar mass of the structure shown. “Also recorded” adds a separate entry of the source. Counter-ions that a name gives are not always drawn.

Tests used:
THP-1 cells = assay: Viability of THP-1 cells under treatment; type: cell-based; conditions: Example 61; each tested condition
IL-6 = assay: P. acnes-induced IL-6 release in THP-1 cells (ELISA); type: cell-based
IL-8 = assay: P. acnes-induced IL-8 release in THP-1 cells (ELISA); type: cell-based
Method: (§1) Method: Preparation of Stimulant for Inflammation: P. acnes culture suspension was prepared in PBS and the cell number in the suspension was adjusted to approximately 5×10^8 CFU/ml by measuring the cell density using a Densimat. The bacterial suspension was then heat killed at 80° C. for 30 min and stored at −80° C. until further use.
(§2) Cells were seeded in a 96-well format (2×10^5 THP-1 cells per well) in media containing 10% FBS. The cells were stimulated to induce inflammatory cytokines using 3 McFarland equivalent heat-killed P. acnes. Cells in control wells were treated with PBS. One hour after induction with P. acnes, test agents were added to the induced cells at appropriate concentrations to be tested (compound 91 at 25 μg/ml). The plates were incubated at 37° C. for 24 hours. After 24 h, the plates were centrifuged to pellet the cells and the supernatants were collected. The cell culture supernatants thus obtained were analyzed for levels of cytokines (IL-1α, IL-1β, IL-6 and IL-8) by ELISA using R&D Systems kits for individual cytokines following the manufacturer's instructions.
Preparation of stimulant for inflammation: P. acnes culture suspension was prepared in PBS and the cell number in the suspension was adjusted to approximately 5×10^8 CFU/ml by measuring the cell density using a Densimat. The bacterial suspension was then heat killed at 80° C. for 30 min and stored at −80° C. until further use.
Cells were seeded in a 96-well format (2×10^5 THP-1 cells per well) in media containing 10% FBS. The cells were stimulated to induce inflammatory cytokines using 3 McFarland equivalent heat-killed P. acnes. Cells in control wells were treated with PBS. One hour after induction with P. acnes, test agents were added to the induced cells at appropriate concentrations (Besifloxacin at 10 and 30 μg/ml; Adapalene at 0.04 and 0.4 μg/ml). The plates were incubated at 37° C. for 24 hours. After 24 h, the plates were centrifuged to pellet the cells and the supernatants were collected. The cell culture supernatants thus obtained were analyzed for cytokine levels (IL-6 and IL-8) by ELISA using R&D Systems kits for individual cytokines following the manufacturer's instructions.

[1] = pH dependent solubility of besifloxacin.HCl; type: physicochemical; conditions: pH of about 4.5 or below solubilizes the drug
From the text: Preparation of drug-loaded (suspended form) gel via a conventional method usually leads to exposure of the drug to a wide range of pH conditions, which may lead to, in some instances, solubilization of the drug, and then reprecipitation. This solubilization-reprecipitation phenomenon in most cases leads to change in original particle size, impurity profile or crystal pattern, or others. […] The solubilized besifloxacin then, upon increase in pH (during formulation preparation), reprecipitates, which may result in one or more unwanted changes.

P. acnes MTCC 1951 = assay: MIC by micro broth dilution (Alamar blue), clindamycin-susceptible P. acnes; type: cell-based, Propionibacterium acnes; conditions: for MIC: Cutibacterium acnes, MTCC1951, read-out: MIC Susceptible P. acnes (1951) strain; for Activity / bacterial killing, dose response curve (in words): clindamycin-susceptible MTCC 1951
Method in brief: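 P. acnes in BHI broth, inoculum adjusted to 0.5 McFarland and diluted 100-fold, exposed to serially diluted compound at 37° C. for 48-72 h under anaerobic conditions. Growth read by OD at 595 nm; MIC recorded after Alamar blue addition.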

E. coli DNA gyrase = biological target: T1, E. coli DNA gyrase (Escherichia coli, UniProt P0AES4+P0AES6); assay: DNA gyrase super-coiling activity assay (Topogen kit, relaxed pHOT1 plasmid); type: biochemical; conditions: 1 μM and 2.5 μM
T1 construct: purchased Topogen Inc
T1 sequence (P0AES4 whole entry, one chain of several): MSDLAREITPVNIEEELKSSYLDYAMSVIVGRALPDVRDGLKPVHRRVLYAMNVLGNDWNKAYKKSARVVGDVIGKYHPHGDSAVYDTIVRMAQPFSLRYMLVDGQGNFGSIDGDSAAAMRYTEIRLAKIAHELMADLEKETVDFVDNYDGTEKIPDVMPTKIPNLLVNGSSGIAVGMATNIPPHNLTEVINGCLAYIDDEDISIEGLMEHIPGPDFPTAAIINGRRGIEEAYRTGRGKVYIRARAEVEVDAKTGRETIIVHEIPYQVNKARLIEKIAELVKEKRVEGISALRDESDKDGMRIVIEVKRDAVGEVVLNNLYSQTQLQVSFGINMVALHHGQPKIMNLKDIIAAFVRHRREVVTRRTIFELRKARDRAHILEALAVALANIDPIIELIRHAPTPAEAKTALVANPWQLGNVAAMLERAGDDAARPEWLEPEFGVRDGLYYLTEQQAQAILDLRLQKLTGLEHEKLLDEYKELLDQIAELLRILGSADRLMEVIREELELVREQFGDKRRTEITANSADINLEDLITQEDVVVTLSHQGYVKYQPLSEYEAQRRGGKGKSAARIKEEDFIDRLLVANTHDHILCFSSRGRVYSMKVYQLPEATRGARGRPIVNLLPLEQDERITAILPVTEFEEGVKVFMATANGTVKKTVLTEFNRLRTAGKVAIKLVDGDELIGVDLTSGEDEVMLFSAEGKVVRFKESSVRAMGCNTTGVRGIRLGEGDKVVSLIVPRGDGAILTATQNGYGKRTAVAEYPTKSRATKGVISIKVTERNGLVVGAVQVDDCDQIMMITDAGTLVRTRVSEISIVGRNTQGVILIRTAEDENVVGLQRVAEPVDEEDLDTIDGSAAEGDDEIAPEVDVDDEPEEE
Method: DNA super-coiling activity was assayed using DNA gyrase assay kit (Topogen Inc.) with relaxed pHOT1 E. coli plasmid DNA according to manufacturer's protocol. The standard reaction mixture (20 μl) contained 35 mM Tris-HCl (pH 7.5), 24 mM KCl, 4 mM MgCl2, 2 mM dithiothreitol, 1.8 mM spermidine, 1 mM ATP, 6.5% glycerol, 0.1 mg/ml bovine serum albumin (BSA), 10 μg/ml relaxed pHOT1 plasmid DNA and 1 U of DNA gyrase. The reaction mixture was incubated at 37° C. for 1 h in presence of selected compounds/fluoroquinolone at different concentrations. The reaction was terminated by addition of ⅕ volume of loading dye (4 μl) followed by proteinase K (50 μg/ml) and again incubated at 37° C. for half an hour. 20 μl chloroform/isoamyl alcohol (24:1) was added to each tube and vortexed briefly. Thereafter, the blue aqueous phase was separated out and analyzed by 1% agarose gel electrophoresis. The gel was stained by ethidium bromide for half an hour and destained with water for 15 mins. The gel was then visualized in a trans-illuminator and photographed.

S. aureus MTCC 6908 = assay: MIC by micro broth dilution, laboratory S. aureus strain; type: cell-based, Staphylococcus aureus; conditions: for MIC: Staphylococcus aureus, MTCC6908, Table 6, read-out: MIC Susceptible S. aureus (6908) strain
Method: (§3) The plates were incubated at 37° C. for 48 h under anaerobic condition for P. acnes and 37° C. for 24 h for S. aureus The plates were read under Bio-Rad plate reader at 595 nm for optical density to generate the dose-response curves. The MIC of the test compound was recorded by addition of Alamar blue dye.
S. aureus MTCC 6908 were grown in Tryptone Soya Agar (TSA) at 37° C. for 24 hours. […] Plates were incubated at 37° C. for 24 hours. […] (2) Zone of Inhibition (ZOI): S. aureus MTCC 6908 were grown in Tryptone Soya Agar (TSA) at 37° C. for 24 hours. BHA plates are spreaded with 100 μl of 0.5 McFarland standard equal bacterial suspension. Test samples (drugs/formulations) were dissolved in water/solvent based on the solubility. Sterile disc (6 mm) were loaded with 10 μl of test samples (of various concentration of drug), and were placed above the spreaded plates. Plates were incubated at 37 C for 24 h, followed by ZOI measurement. (3) Time Kill Assay: 0.5 McFarland standard equal S. aureus culture was prepared in sterile water. Besifloxacin gels were diluted in Tryptone Soya broth (TSB) to get final concentration of 25 μg/ml. Then 900 μl of S. aureus 0.5 McFarland standard equal culture and 100 μl of diluted Besifloxacin gel was mixed to obtain final Besifloxacin concentration, 2.5 μl g/ml. Total reaction mixture (1 ml) was incubated at 37° C. in a tube rotator. After 2 and 6 h exposure, bacterial suspension was placed on Tryptone soya agar plate and incubated at 37° C. for 24 h.
Inoculated plates were incubated at 37° C. for 24 hours.

P. acnes CCARM 9010 = assay: MIC by micro broth dilution (Alamar blue), clindamycin-resistant/nonresponsive P. acnes; type: cell-based, Propionibacterium acnes; conditions: for MIC: Cutibacterium acnes, CCARM9010, read-out: MIC Resistant P. acnes (9010) strain; for Activity / bacterial killing, dose response curve (in words): clindamycin-nonresponsive CCARM 9010
Method: as §3
P. acnes (MTCC 3297, MTCC 1951& CCARM 9010) are cultured in Brain Heart Infusion (BHI) Broth at 37° C. for 48-72 h under anaerobic condition. The test compounds/formulations are initially diluted with suitable solvent and further diluted with BHI broth to get the required concentrations. Samples (100 μl) of different concentrations (prepared by serial dilution) are added to 96-well plate. To the wells, 100 μl of P. acnes BHI broth culture is added [culture turbidity adjusted against 0.5 McFarland standard (approx 1.5×10^8), and further diluted 100-fold with sterile BHI broth]. In addition Growth Control and Sterility Control are created using 100 μl each of P. acnes BHI broth culture and plain BHI broth, respectively.
Plates are incubated at 37° C. for 48-72 hrs under anaerobic condition. The plate is read under Bio-Rad plate reader @ 595 nm for optical density to generate the dose-response curves. The MIC of the test compound is recorded by addition of Alamar blue dye.

IL-1β = assay: P. acnes-induced IL-1β release in THP-1 cells (ELISA); type: cell-based; conditions: 25 μg/ml, 100% = P. acnes induced cells
Method: as §1, §2

IL-1α = assay: P. acnes-induced IL-1α release in THP-1 cells (ELISA); type: cell-based; conditions: 25 μg/ml, 100% = P. acnes induced cells
Method: as §1, §2

[2] = 25 μg/ml, THP-1 cells, 100% = P. acnes induced cells
[3] = Cells + P. acnes + 0.4 μg/ml (positive control), THP-1 cells, 24 h, Table 70
[4] = Cells + P. acnes + Dexamethasone 0.4 μg/ml, THP-1 cells, Table 71

Row | SMILES | MIC (P. acnes MTCC 1951) | Activity / bacterial killing, dose response curve (in words) (P. acnes MTCC 1951) | Inhibition of super-coiling activity of DNA gyrase (in words) (E. coli DNA gyrase) | MIC (S. aureus MTCC 6908) | MIC (P. acnes CCARM 9010) | Activity / bacterial killing, dose response curve (in words) (P. acnes CCARM 9010) | other results
1 | N[C@@H]1CCCCN(c2c(F)cc3c(=O)c(C(=O)O)cn(C4CC4)c3c2Cl)C1 [Besifloxacin.HCl, besifloxacin hydrochloride] |  |  |  |  |  |  | Cell viability compared to untreated cells (THP-1 cells): over 80%; Effect on P. acnes-induced IL-6 levels (in words) (IL-6; Example 61, besifloxacin 10, 30 μg/ml, adapalene 0.04, 0.4 μg/ml, hydrochloride): significant dose-dependent decrease; also recorded: impart individual anti-inflammatory effects; Reduction in IL-6 levels compared to untreated control (IL-6; besifloxacin.HCl alone at 10 μg/ml): approximately 40%; Effect on P. acnes-induced IL-8 levels (in words) (IL-8; Example 61, besifloxacin 10, 30 μg/ml, adapalene 0.04, 0.4 μg/ml): does not show similar effect; Solubility (in words) [1]: pH dependent solubility
2 | Cc1oc(=O)oc1CN1CCN(c2cc3c(cc2F)c(=O)c(C(=O)OC(CCl)Cn2c([N+](=O)[O-])cnc2C)c2n3C(C)S2)CC1 (stereo not drawn) [Compound 94, 6-Fluoro-1-methyl-7-[4-(5-methyl-2-oxo-[1,3]dioxol-4-ylmethyl)-piperazin-1-yl]-4-oxo-4H-2-thia-8b-aza-cyclobuta[a]naphthalene-3-carboxylic acid 1-chloromethyl-2-(2-methyl-5-nitro-imidazol-1-yl)-ethyl ester] | 3 µg/mL (≈ 4.52 µM) | hardly showed any activity | able to inhibit the super-coiling activity | 2.8 µg/mL (≈ 4.22 µM) | 3 µg/mL (≈ 4.52 µM) | hardly showed any activity | 
3 | CCCCCCCCCCCC(=O)OC(CN1CCN(c2cc3c(cc2F)c(=O)c(C(=O)O)c2n3C(C)S2)CC1)Cn1c([N+](=O)[O-])cnc1C (stereo not drawn) [Compound 113, 7-{4-[2-Dodecanoyloxy-3-(2-methyl-5-nitro-imidazol-1-yl)-propyl]-piperazin-1-yl}-6-fluoro-1-methyl-4-oxo-4H-2-thia-8b-aza-cyclobuta[a]naphthalene-3-carboxylic acid] | 8.2 µg/mL (≈ 11.5 µM) | hardly showed any activity | able to inhibit the super-coiling activity | > 8.2 µg/mL | 8 µg/mL (≈ 11.2 µM) | hardly showed any activity | Activity against S. aureus strain (in words) (S. aureus MTCC 6908): least activities
4 | Cc1ncc([N+](=O)[O-])n1CC(O)CCCCN1CCN(c2cc3c(cc2F)c(=O)c(C(=O)O)c2n3C(C)S2)CC1 (stereo not drawn) [Compound 115, 6-Fluoro-7-{4-[5-hydroxy-6-(2-methyl-5-nitro-imidazol-1-yl)-hexyl]-piperazin-1-yl}-1-methyl-4-oxo-4H-2-thia-8b-aza-cyclobuta[a]naphthalene-3-carboxylic acid] | 0.4 µg/mL (≈ 0.696 µM) | more than double MIC values | able to inhibit the super-coiling activity | 1.6 µg/mL (≈ 2.78 µM) | 0.8 µg/mL (≈ 1.39 µM) | more than double MIC values | 
5 | Cc1ncc([N+](=O)[O-])n1CC(O)CCN1CCN(c2cc3c(cc2F)c(=O)c(C(=O)O)c2n3C(C)S2)CC1 (stereo not drawn) [Compound 116, 6-Fluoro-7-{4-[3-hydroxy-4-(2-methyl-5-nitro-imidazol-1-yl)-butyl]-piperazin-1-yl}-1-methyl-4-oxo-4H-2-thia-8b-aza-cyclobuta[a]naphthalene-3-carboxylic acid] | 0.4 µg/mL (≈ 0.732 µM) | more than double MIC values | able to inhibit the super-coiling activity; also recorded: highly potent; also recorded: best gyrase inhibiting activity | 1.64 µg/mL (≈ 3 µM) | 0.8 µg/mL (≈ 1.46 µM) | more than double MIC values | 
6 | C[C@@H]1C[C@H]2[C@@H]3CCC4=CC(=O)C=C[C@]4(C)[C@@]3(F)[C@@H](O)C[C@]2(C)[C@@]1(O)C(=O)CO [Dexamethasone] |  |  |  |  |  |  | Percentage reduction in P. acnes induced IL-6 release (IL-6; [2]): 99.54%; Expression of Cytokines IL-6 (pg/ml) Mean (IL-6; [3]): 2.15 pg/mL; Expression of Cytokines IL-6 (pg/ml) Mean (IL-6; [4]): 2.15 pg/mL; Reduction in IL-6 levels (IL-6; Example 61, positive control): ~100%; Percentage reduction in P. acnes induced IL-8 release (IL-8; [2]): 58.78%; Expression of Cytokines IL-8 (pg/ml) Mean (IL-8; [3]): 1080.8 pg/mL; Expression of Cytokines IL-8 (pg/ml) Mean (IL-8; [4]): 1080.76 pg/mL; Percentage reduction in P. acnes induced IL-1β release (IL-1β): 64.73%; Percentage reduction in P. acnes induced IL-1α release (IL-1α): 53.83%
